Data from PMC3210919 (Biochemistry, 2011).
Where two headings read alike, the source gives them in different places.

Assays:
[1] = target: T1, wild-type RePC (Rhizobium etli, UniProt Q2K340); type: biochemical; conditions: saturating substrates and activators, 1 mM oxamate; pH 7.5, 25° C
[2] = target: T1, wild-type RePC; type: biochemical; conditions: for % kcat of pyruvate carboxylation: phosphoryl donor varied, 0.25 mM acetyl-CoA
[3] = target: T2, K1119Q RePC mutant (Rhizobium etli, UniProt Q2K340, K1119Q)
[4] = target: T882A RePC mutant (Rhizobium etli, UniProt Q2K340, T882A)
[5] = test system: wild-type RePC (pyruvate carboxylase from R. etli); assay: Pyruvate carboxylation activity, malate dehydrogenase coupled assay; type: biochemical, Rhizobium etli
[6] = target: T1, wild-type RePC; assay: HCO3^−-dependent ATPase activity in the absence of pyruvate; type: biochemical
[7] = target: T2, K1119Q RePC mutant; assay: HCO3^−-dependent ATPase reaction, K1119Q mutant; type: biochemical
[8] = test system: NC(=O)OP(=O)(O)O; assay: purified protein, by the assay type; conditions: other: K1119Q, no free biotin; pH 7.5; 25.0 °C
[9] = substrate: CC(=O)C(=O)O; assay: purified protein, by the assay type; conditions: other: (−) acetyl-CoA, 15 mM HCO3^−
[10] = wild-type, (+) 10 mM free biotin

O=C(O)CC(=O)C(=O)O [oxaloacetate]
% kcat of pyruvate carboxylation [1]: 2.0%

CC(=O)OP(=O)(O)O [Acetyl phosphate]
% kcat of pyruvate carboxylation ([2]; pH 7.5, 25° C): 0.1% | Km [2, 10]: 140 ± 40 µM | kcat [2, 10]: 0.00483 ± 3.3e-05 s⁻¹ | % wild-type kcat/Km ([3]; (+) 10 mM free biotin): 57% | Km ([3]; (+) 10 mM free biotin): 370 ± 30 µM | kcat ([3]; (+) 10 mM free biotin): 0.00733 ± 0.00017 s⁻¹ | % wild-type kcat/Km ([3]; no free biotin): 95% | Km ([3]; no free biotin): 290 ± 10 µM | kcat ([3]; no free biotin): 0.00783 ± 0.00017 s⁻¹ | % wild-type kcat/Km ([4]; (+) 10 mM free biotin): 40% | Km ([4]; (+) 10 mM free biotin): 140 ± 10 µM | kcat ([4]; (+) 10 mM free biotin): 0.002 ± 0.00017 s⁻¹ | % wild-type kcat/Km ([4]; no free biotin): 80% | Km ([4]; no free biotin): 220 ± 10 µM | kcat ([4]; no free biotin): 0.005 ± 0.00017 s⁻¹

[Mg+2] [Mg^2+]
concentration of free Mg^2+ that inhibited pyruvate carboxylation [5]: > 7 mM | fold increase in kcat ([5]; Mg^2+ increased from 0.5 to 3 mM, acetyl-CoA varied): 4.9 fold | Ka for Mg^2+ for the effect on Vmax ([5]; estimated from replot of apparent 1/Vmax vs. 1/[Mg^2+], pyruvate varied): ≈ 40 mM | concentration of free Mg^2+ that inhibited MgATP-cleavage [6]: > 7 mM | inhibition of the MgADP phosphorylation reaction by Mg^2+ ([2]; up to 11 mM Mg^2+): no inhibition

O=C(O)CCCC[C@@H]1SC[C@@H]2NC(=O)N[C@@H]21 [biotin]
fold increase in the catalytic efficiency ([7]; 10 mM free biotin added): ~1000 fold | fold decrease in the Km for MgATP ([7]; addition of 10 mM biotin): 35 fold

K1119Q RePC mutant (Rhizobium etli CFN 42; K1119Q)
Km [8]: 880 ± 70 µM

NC(=O)OP(=O)(O)O [Carbamoyl phosphate]
% kcat of pyruvate carboxylation ([2]; pH 7.5, 25° C): 0.6% | kcat ([2]; wild-type, no free biotin, pH 7.5, 25° C, […] MgADP, 0.25 mM acetyl-CoA (Table 7)): 0.04 ± 0.0017 s⁻¹ | % wild-type kcat/Km ([3]; (+) 10 mM free biotin): 45% | % wild-type kcat/Km ([3]; no free biotin): 17% | % wild-type kcat/Km ([4]; (+) 10 mM free biotin): 920% | % wild-type kcat/Km ([4]; no free biotin): 750%

B1: wild-type RePC (Rhizobium etli CFN 42) (protein)
chain: MPISKILVANRSEIAIRVFRAANELGIKTVAIWAEEDKLALHRFKADESYQVGRGPHLARDLGPIESYLSIDEVIRVAKLSGADAIHPGYGLLSESPEFVDACNKAGIIFIGPKADTMRQLGNKVAARNLAISVGVPVVPATEPLPDDMAEVAKMAAAIGYPVMLKASWGGGGRGMRVIRSEADLAKEVTEAKREAMAAFGKDEVYLEKLVERARHVESQILGDTHGNVVHLFERDCSVQRRNQKVVERAPAPYLSEAQRQELAAYSLKIAGATNYIGAGTVEYLMDADTGKFYFIEVNPRIQVEHTVTEVVTGIDIVKAQIHILDGAAIGTPQSGVPNQEDIRLNGHALQCRVTTEDPEHNFIPDYGRITAYRSASGFGIRLDGGTSYSGAIITRYYDPLLVKVTAWAPNPLEAISRMDRALREFRIRGVATNLTFLEAIIGHPKFRDNSYTTRFIDTTPELFQQVKRQDRATKLLTYLADVTVNGHPEAKDRPKPLENAARPVVPYANGNGVKDGTKQLLDTLGPKKFGEWMRNEKRVLLTDTTMRDGHQSLLATRMRTYDIARIAGTYSHALPNLLSLECWGGATFDVSMRFLTEDPWERLALIREGAPNLLLQMLLRGANGVGYTNYPDNVVKYFVRQAAKGGIDLFRVFDCLNWVENMRVSMDAIAEENKLCEAAICYTGDILNSARPKYDLKYYTNLAVELEKAGAHIIAVKDMAGLLKPAAAKVLFKALREATGLPIHFHTHDTSGIAAATVLAAVEAGVDAVDAAMDALSGNTSQPCLGSIVEALSGSERDPGLDPAWIRRISFYWEAVRNQYAAFESDLKGPASEVYLHEMPGGQFTNLKEQARSLGLETRWHQVAQAYADANQMFGDIVKVTPSSKVVGDMALMMVSQDLTVADVVSPDREVSFPESVVSMLKGDLGQPPSGWPEALQKKALKGEKPYTVRPGSLLKEADLDAERKVIEKKLEREVSDFEFASYLMYPKVFTDFALASDTYGPVSVLPTPAYFYGLADGEELFADIEKGKTLVIVNQAVSATDSQGMVTVFFELNGQPRRIKVPDRAHGATGAAVRRKAEPGNAAHVGAPMPGVISRVFVSSGQAVNAGDVLVSIEAMKMETAIHAEKDGTIAEVLVKAGDQIDAKDLLAVYGG
Km [9]: 13 ± 2 µM | kcat [9]: 0.0253 ± 0.0005 s⁻¹
